Consider 17 molecules from publication PMC9798004 (Frontiers in Psychiatry, 2022).

Common to all, as to assay type: cell-based
The test system of series [1] is 168 GPCRs. Put plainly: gpcrMAX panel 30 μM single-point β-arrestin screen (agonist and antagonist mode). Particulars: antagonist mode. The procedure:
Activity, or a “hit,” was defined as >30% in agonist mode, >35% in antagonist mode, or >50% in the orphan screen (agonist mode). Where these criteria were met, signal-to-noise (S/N) and coefficient of variation (CoV) were also calculated, defined as: […]
Agonist mode Antagonist modeS/N Compound mean/Baseline mean+(Baseline SD×3) EC80 mean/Compound-(Compound SD× 3)CoV Baseline mean/Compound mean-(Compound SD× 3) Compound mean/EC80 mean-(EC80 SD × 3)
Hits were verified to have S/N>1 and a CoV <1. Thresholds and subsequent validation were guided by Eurofins. Descriptive data (means ± S.E.M) was generated in Graphpad Prism (version 9.2.0, San Diego, CA).

Series [2] addresses T1, GPR119 (Homo sapiens, UniProt Q8TDV5).
T1 construct: purchased Eurofins DiscoverX (PathHunter gpcrMAX)
T1 sequence (Q8TDV5 1-335): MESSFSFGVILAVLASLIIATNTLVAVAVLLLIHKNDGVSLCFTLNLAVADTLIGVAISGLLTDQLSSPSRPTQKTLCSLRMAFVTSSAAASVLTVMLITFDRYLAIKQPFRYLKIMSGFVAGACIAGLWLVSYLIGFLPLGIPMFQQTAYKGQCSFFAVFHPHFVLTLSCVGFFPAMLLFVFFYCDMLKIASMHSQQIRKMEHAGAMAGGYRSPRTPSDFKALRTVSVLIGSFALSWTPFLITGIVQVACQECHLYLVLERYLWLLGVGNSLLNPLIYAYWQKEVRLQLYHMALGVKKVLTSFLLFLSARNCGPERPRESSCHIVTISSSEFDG
Briefly: PathHunter β-arrestin assay. Particulars: for inhibition in single-point screen: antagonist mode, 30 μM.

For series [3], the target named is T2, CCR4 (Homo sapiens, UniProt P51679).
T2 sequence (P51679 1-360): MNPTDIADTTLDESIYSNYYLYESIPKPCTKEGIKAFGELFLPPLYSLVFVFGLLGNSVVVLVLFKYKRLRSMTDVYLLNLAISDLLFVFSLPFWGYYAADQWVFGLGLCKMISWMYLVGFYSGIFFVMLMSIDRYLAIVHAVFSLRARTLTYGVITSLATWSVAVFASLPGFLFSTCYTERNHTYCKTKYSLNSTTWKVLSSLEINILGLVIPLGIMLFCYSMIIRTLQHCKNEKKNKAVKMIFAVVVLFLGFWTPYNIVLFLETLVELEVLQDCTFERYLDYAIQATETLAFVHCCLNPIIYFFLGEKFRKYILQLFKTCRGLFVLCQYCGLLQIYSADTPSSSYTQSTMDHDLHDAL
Put plainly: PathHunter β-arrestin assay. The settings on record: for EC80: control agonist. The procedure:
(§1) Follow up experiments were prioritized based on the difference between S/N and CoV. Targets with a >5-fold difference between S/N and CoV were investigated for their potential contribution to the AMB-FUBINACA toxidrome with 10-point concentration-response curves generated in technical replicate (range 1.5–30 μM) using the EC80 of the relevant agonist, where applicable in antagonist mode. Simultaneous agonist and antagonist curves were run in parallel to ensure reliability of the assay (see Supplementary Table 2), with both RC50 and signal to background aligning with historical averages, and Z' >0.5. RC50 was estimated using a four-parameter fit (CBIS Data Analysis Suite, ChemInnovation, San Diego, CA) on normalized data.

Series [4] addresses PTGER4 (Homo sapiens, UniProt P35408). Briefly: PathHunter β-arrestin assay. The settings on record: follow-up assays, control antagonist. Here is the method:
as §1

Series [5] concerns the target P2RY6 (Homo sapiens, UniProt Q15077). Put plainly: PathHunter β-arrestin assay. Here is the method:
as §1

Series [6] deals with AtT20 cells wildtype (WT). Put plainly: LDH release cytotoxicity assay. The settings on record: 30 μM. The procedure: AtT20 cells expressing either human CB1 (hCB1) or CB2 (hCB2) receptors or wildtype (WT) were grown to confluence in T75 cm^2 flasks in Dulbecco's modified eagle medium containing 10% fetal bovine serum, 100 U penicillin/streptomycin, and 80 μg/mL hygromicyin (Sigma-Aldrich/Merck; Castle Hill, NSW, Australia). Cells were plated in 96-well-microplates at 30,000 cells per well and allowed to adhere overnight in 5% CO2. The following morning, cells were treated with either vehicle (0.1% DMSO; negative control), 30 μM Δ^9-THC, or 30 μM AMB-FUBINACA. At 1 or 6 h, the amount of lactate dehydrogenase in the cell media was tested, and compared with positive control (lysed cells) as per manufacturer's instructions (Dojindo Molecular Technologies, Inc.; Rockville, MD, USA), with readings performed on a Clariostar Plus plate reader (BMG Labtech, Mornington, VIC, Australia). Experiments were performed in triplicate. In order to measure any accumulating LDH, media was not changed after initial incubation. Data is represented as means ± S.E.M. A two-way ANOVA with was performed on the data at each time point, with Tukey's multiple comparison test (α = 0.05). A p < 0.05 was considered statistically significant.

Series [7] addresses T3, ADRA2C (Homo sapiens, UniProt P18825).
T3 sequence (P18825 1-462): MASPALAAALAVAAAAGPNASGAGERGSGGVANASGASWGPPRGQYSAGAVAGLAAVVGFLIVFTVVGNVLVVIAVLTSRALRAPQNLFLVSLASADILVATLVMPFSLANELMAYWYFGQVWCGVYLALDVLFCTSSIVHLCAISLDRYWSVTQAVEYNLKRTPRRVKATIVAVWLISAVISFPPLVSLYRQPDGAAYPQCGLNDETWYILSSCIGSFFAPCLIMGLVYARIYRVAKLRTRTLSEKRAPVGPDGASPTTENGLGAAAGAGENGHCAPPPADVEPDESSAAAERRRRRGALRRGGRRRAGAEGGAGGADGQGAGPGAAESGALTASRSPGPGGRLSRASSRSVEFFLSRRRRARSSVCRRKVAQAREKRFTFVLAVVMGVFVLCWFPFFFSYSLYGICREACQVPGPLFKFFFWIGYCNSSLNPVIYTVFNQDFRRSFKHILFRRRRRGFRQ
Briefly: PathHunter β-arrestin assay. The settings on record: control agonist.

The target of series [8] is GPR35 (Homo sapiens, UniProt Q9HC97). Put plainly: PathHunter β-arrestin assay. Particulars: control agonist.
Series [9] concerns the target T4, CCR6 (Homo sapiens, UniProt P51684).
T4 construct: purchased Eurofins DiscoverX (PathHunter gpcrMAX)
T4 sequence (P51684 1-374): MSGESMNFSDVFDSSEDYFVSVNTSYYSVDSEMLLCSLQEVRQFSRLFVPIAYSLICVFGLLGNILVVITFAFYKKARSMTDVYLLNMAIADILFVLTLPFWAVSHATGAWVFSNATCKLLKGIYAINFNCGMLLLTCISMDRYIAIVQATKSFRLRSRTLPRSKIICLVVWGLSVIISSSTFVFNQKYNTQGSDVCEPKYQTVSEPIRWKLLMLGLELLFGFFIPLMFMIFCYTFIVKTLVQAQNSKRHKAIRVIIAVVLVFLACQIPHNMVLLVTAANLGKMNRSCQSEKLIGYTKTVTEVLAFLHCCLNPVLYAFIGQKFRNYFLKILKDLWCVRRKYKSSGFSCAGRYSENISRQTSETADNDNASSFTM
Briefly: PathHunter β-arrestin assay. Particulars: control agonist. The procedure: as §1

The target in series [10] is T5, HCRTR1 (Homo sapiens, UniProt O43613).
T5 sequence (O43613 1-425): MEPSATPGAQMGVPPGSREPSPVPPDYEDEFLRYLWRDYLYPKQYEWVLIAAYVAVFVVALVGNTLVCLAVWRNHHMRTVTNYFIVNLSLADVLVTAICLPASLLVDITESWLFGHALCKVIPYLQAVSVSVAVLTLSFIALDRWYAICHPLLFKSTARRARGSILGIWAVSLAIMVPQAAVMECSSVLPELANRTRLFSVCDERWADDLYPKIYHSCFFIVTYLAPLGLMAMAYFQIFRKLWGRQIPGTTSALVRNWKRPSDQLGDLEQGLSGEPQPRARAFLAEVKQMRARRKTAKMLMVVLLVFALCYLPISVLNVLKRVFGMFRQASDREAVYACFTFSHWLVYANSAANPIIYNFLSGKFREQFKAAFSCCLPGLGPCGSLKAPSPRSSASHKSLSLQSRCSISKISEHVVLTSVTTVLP
Briefly: PathHunter β-arrestin assay. The settings on record: control agonist. Here is the method: as §1

For series [11], the target named is T6, CCR9 (Homo sapiens, UniProt P51686).
T6 construct: purchased Eurofins DiscoverX (PathHunter gpcrMAX)
T6 sequence (P51686 1-369): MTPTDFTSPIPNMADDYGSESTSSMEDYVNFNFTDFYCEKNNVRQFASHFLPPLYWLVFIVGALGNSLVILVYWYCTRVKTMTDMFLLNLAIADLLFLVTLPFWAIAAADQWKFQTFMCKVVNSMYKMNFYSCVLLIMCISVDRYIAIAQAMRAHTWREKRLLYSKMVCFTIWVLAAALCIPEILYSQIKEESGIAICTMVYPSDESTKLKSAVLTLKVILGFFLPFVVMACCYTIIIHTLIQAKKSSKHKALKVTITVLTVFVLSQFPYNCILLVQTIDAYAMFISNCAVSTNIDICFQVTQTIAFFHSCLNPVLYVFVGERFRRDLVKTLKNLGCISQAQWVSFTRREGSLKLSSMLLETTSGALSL
Briefly: PathHunter β-arrestin assay. The settings on record: control agonist. The procedure:
as §1

In series [12] the target is CCR8 (Homo sapiens, UniProt P51685). Put plainly: PathHunter β-arrestin assay. The settings on record: control agonist. The procedure:
as §1

Where [13] appears, read: follow-up assays, control antagonist.
The mark [14] stands for this setting: follow-up concentration-response assays.

Counter-ions that a name gives are not always drawn. No end group written: not given here.

Chain of GPR35 (Q9HC97 whole entry): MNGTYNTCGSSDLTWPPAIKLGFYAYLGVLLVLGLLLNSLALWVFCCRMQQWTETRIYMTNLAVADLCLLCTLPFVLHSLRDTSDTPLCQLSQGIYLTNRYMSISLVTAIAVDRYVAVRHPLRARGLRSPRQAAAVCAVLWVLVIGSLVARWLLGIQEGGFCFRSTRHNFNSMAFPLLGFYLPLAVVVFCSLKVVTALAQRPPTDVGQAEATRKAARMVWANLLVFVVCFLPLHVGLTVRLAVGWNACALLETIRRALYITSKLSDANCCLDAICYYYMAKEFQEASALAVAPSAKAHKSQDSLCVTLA
Chain of P2RY6 (Q15077 whole entry): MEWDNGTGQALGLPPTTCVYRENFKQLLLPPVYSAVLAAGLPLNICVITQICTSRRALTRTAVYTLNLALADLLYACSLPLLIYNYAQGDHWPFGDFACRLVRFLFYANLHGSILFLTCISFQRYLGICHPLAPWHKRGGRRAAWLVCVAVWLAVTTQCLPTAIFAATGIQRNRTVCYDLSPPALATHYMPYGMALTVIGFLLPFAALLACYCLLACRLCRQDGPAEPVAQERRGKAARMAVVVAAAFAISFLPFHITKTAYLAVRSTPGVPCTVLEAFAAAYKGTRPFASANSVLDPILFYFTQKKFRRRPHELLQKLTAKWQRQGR
Chain of PTGER4 (P35408 whole entry): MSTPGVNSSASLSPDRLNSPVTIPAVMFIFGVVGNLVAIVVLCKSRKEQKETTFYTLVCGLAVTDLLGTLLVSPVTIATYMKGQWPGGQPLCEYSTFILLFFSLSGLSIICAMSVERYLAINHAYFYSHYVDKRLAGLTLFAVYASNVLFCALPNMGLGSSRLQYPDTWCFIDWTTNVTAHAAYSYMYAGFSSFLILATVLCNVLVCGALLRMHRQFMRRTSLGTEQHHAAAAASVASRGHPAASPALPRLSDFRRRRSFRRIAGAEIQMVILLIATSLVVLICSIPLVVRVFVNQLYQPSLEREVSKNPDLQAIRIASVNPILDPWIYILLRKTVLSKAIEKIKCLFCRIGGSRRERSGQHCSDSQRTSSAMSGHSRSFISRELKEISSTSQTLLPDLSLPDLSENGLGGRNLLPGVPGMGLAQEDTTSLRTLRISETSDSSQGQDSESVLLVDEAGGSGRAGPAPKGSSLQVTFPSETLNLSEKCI

For `COC(=O)C(NC(=O)c1nn(CCCCF)c2ccccc12)C(C)(C)C` (centres unmarked) [4F-MDMB-BUTINACA], in series [1], the “number of off-targets inhibited (>35%)” value stood at 16.

Consider `CCCCCn1nc(C(=O)NC23CC4CC(CC(C4)C2)C3)c2ccccc21` [AKB-48], for which the “inhibition in single-point screen” value in series [2] is listed as “inhibited to the greatest extent of any antagonist mode target”.

As for `COc1cc2nc(N3CCC(N4CCCCC4)CC3)nc(NC3CCCCCC3)c2cc1OC` [C 021 dihydrochloride], in [3] (setting [13]), the IC50 worked out at 2.58 nM. This counts as single-digit nanomolar.

For the molecule `CCCCCn1nc(C(=O)NC(C)(C)c2ccccc2)c2ccccc21` [CUMYL-PINACA], the “number of off-targets inhibited (>35%)” value in series [1] is reported as “inhibited the greatest number of targets”. In [2], the “inhibition in single-point screen” value is “inhibited to the greatest extent of any antagonist mode target”.

As to `CCCCc1nn(-c2ccccc2C(F)(F)F)c(=O)n1Cc1ccc(-c2ccccc2S(=O)(=O)NC(=O)c2sccc2C)cc1` [L 161,982], the IC50 in series [4] was found to be 15.9 nM. In other words, the double-digit nanomolar range.

In turn, `S=C=Nc1cccc(NC(=S)NCCCCNC(=S)Nc2cccc(N=C=S)c2)c1` [MRS 2578] had an IC50 in series [5] (setting [13]) of 2520 nM.

For `CCCCCCCC/C=C\CCCCCCCC(=O)NCCO` [Oleoyl Ethanolamide], the EC80 in series [2] (screen, control agonist, HEK, 37C, 2HR) is 4.31 µM.

In the case of `CCCCCn1cc(C(=O)Oc2cccc3cccnc23)c2ccccc21` [PB-22], in [1], the “number of off-targets inhibited (>35%)” value was found to be 20.

In the case of `CCCCCc1cc(O)c2c(c1)OC(C)(C)[C@@H]1CCC(C)=C[C@@H]21` [THC, Δ^9-tetrahydrocannabinol], the “LDH in cell media, normalized to total LDH” value in series [6] (1 h) stood at 22.40 ± 3.44%. Besides, the “LDH increase compared with vehicle” value in series [6] (6 h) was “no effect was observed”.

`O=c1ccn([C@@H]2O[C@H](COP(=O)(O)OP(=O)(O)O)[C@@H](O)[C@H]2O)c(=O)[nH]1` [UDP] yielded an EC80 in series [5] (follow-up concentration-response assays, control agonist) of 0.07488 µM.

As for `Brc1c(NC2=NCCN2)ccc2nccnc12` [UK 14,304], the EC80 is 0.1231 µM in [7] (setting [14]) and 0.111 µM in series [7] (screen, CHO, RT, 2HR).

In the case of `CCCOc1ccccc1-c1nc2nn[nH]c2c(=O)[nH]1` [Zaprinast], the EC80 in series [8] (setting [14]) was 4.048 µM; in [8] (screen, CHO, 37C, 2HR), 12.1 µM.

In the case of CCL20: control agonist, the EC80 was found to be 0.04468 µM in series [9] (setting [14]) and 0.0447 µM in series [9] (screen, CHO, 37C, 2HR).

With “Orexin A (QPLPDCCRQKTCSCRLYELLHGAGNHAAGILTL; not fully specified (residue 1, C-terminus, bridges); cysteine pairing not given here; UniProt O43612 34-66, looked up) [control agonist]”, the concentration for an effect of 80% (EC80) worked out at 0.01062 µM in series [10] (setting [14]) and 0.0106 µM in series [10] (screen, CHO, 37C, 2HR).

B1: CCL22: control agonist (protein, UniProt O00626 25-93, looked up)
C-C motif chemokine 22: GPYGANMEDSVCCRDYVRYRLPLRVVKHFYWTSDSCPRPGVVLLTFRDKEICADPRVPWVKMILNKLSQ
Regarding B1, the EC80 amounted to 0.01961 µM in series [3] (setting [14]) and 0.00654 µM in series [3] (screen, CHO, 37C, 2HR).

B2: CCL25: control agonist (protein, UniProt O15444 24-150, looked up)
C-C motif chemokine 25: QGVFEDCCLAYHYPIGWAVLRRAWTYRIQEVSGSCNLPAAIFYLPKRHRKVCGNPKSREVQRAMKLLDARNKVFAKLHHNTQTFQAGPHAVKKLSSGNSKLSSSKFSNPISSSKRNVSLLISANSGL
Consider B2, for which the EC80 in series [11] (setting [14]) is 0.35 µM; in series [11] (screen, CHO, 37C, 2HR), 0.37 µM.

B3: CCL1: control agonist (protein, UniProt P22362 24-96, looked up)
C-C motif chemokine 1: KSMQVPFSRCCFSFAEQEIPLRAILCYRNTSSICSNEGLIFKLKRGKEACALDTVGWVQRHRKMLRHCPSKRK
For B3, the EC80 in [12] (setting [14]) worked out at 0.1574 µM; in series [12] (screen, CHO, 37C, 2HR), 0.157 µM.
